One block for each molecule: values may come before it. Activity calls are given as the source filed them. The calls are words filed in the database; no cut-off is given here.
Assays:
[1] = molecular target: T1, Protein cereblon/Cyclin-G-associated kinase (Mus musculus) (UniProt Q8C7D2+Q99KY4); test: Induction of GAK degradation in MEF cells at 1 uM measured after 48 hrs by Western blot analysis; format: cell-based
[2] = molecular target: Leucine-rich repeat serine/threonine-protein kinase 2 (Mus musculus) (UniProt Q5S006); test: Induction of LRRK2 degradation in MEF cells by Western blot analysis; format: cell-based
[3] = molecular target: T2, Leucine-rich repeat serine/threonine-protein kinase 2 (Homo sapiens, UniProt Q5S007); test: Inhibition of recombinant human GST-tagged LRRK2 (970 to 2527 residues) expressed in insect cells using LRRKtide as substrate measured after 1 hr by Adapta TR-FRET assay; parameters: species or system Insect cell
[4] = molecular target: Leucine-rich repeat serine/threonine-protein kinase 2 (Homo sapiens, UniProt Q5S007, G2019S); test: Inhibition of recombinant human GST-tagged LRRK2 G2019S mutant (970 to 2527 residues) expressed in insect cells using LRRKtide as substrate measured after 1 hr by Adapta TR-FRET assay; parameters: species or system Insect cell
[5] = molecular target: T3, Protein cereblon/Leucine-rich repeat serine/threonine-protein kinase 2 (Mus musculus) (UniProt Q5S006+Q8C7D2); test: Protac activity at CRBN/LRRK2 in MEF cells assessed as induction of LRRK2 degradation at 10 to 1000 nM incubated for 1 to 48 hrs by Western blot analysis; format: cell-based; conditions: dose 10-1000 nM, time 1-48 hrs
[6] = molecular target: Leucine-rich repeat serine/threonine-protein kinase 2 (Mus musculus) (UniProt Q5S006); test: Induction of LRRK2 degradation in MEF cells at 100 nM measured after 2 hrs by Western blot analysis; format: cell-based
[7] = molecular target: T3, Protein cereblon/Leucine-rich repeat serine/threonine-protein kinase 2 (Mus musculus); test: Protac activity at CRBN/LRRK2 in MEF cells assessed as induction of LRRK2 degradation at 1000 nM incubated for 48 hrs by Western blot analysis; format: cell-based
[8] = molecular target: Protein cereblon/Cyclin-G-associated kinase (Homo sapiens) (UniProt O14976+Q96SW2); test: Protac activity at CRBN/GAK in human MOLT-4 cells assessed as induction of GAK degradation at 1 uM by proteomic analysis; format: cell-based
[9] = molecular target: T3, Protein cereblon/Leucine-rich repeat serine/threonine-protein kinase 2 (Mus musculus); test: Protac activity at CRBN/LRRK2 in MEF cells assessed as induction of LRRK2 degradation at 1 uM incubated for 48 hrs in the presence of MLi-2 by Western blot analysis; format: cell-based
[10] = molecular target: T1, Protein cereblon/Cyclin-G-associated kinase (Mus musculus); test: Protac activity at CRBN/GAK in MEF cells assessed as induction of GAK degradation at 1 uM measured after 48 hrs by Western blot analysis; format: cell-based
[11] = test system: Protein cereblon/Leucine-rich repeat serine/threonine-protein kinase 2 (Mus musculus), Q5S006+Q8C7D2 [R1441C]; test: Protac activity at CRBN/LRRK2 R1441C mutant in MEF cells assessed as induction of LRRK2 degradation at 1 uM incubated for 48 hrs in presence of cereblon degrader ZXH-03-153 by Western blot analysis; format: cell-based
[12] = molecular target: T3, Protein cereblon/Leucine-rich repeat serine/threonine-protein kinase 2 (Mus musculus); test: Protac activity at CRBN/LRRK2 in MEF cells assessed as induction of LRRK2 degradation at 1 uM incubated for 48 hrs by Western blot analysis; format: cell-based
[13] = test system: Protein cereblon/Leucine-rich repeat serine/threonine-protein kinase 2 (Mus musculus), Q5S006+Q8C7D2 [R1441C]; test: Protac activity at CRBN/LRRK2 R1441C mutant in MEF cells assessed as induction of LRRK2 degradation at 1 uM incubated for 48 hrs by Western blot analysis; format: cell-based
[14] = molecular target: T3, Protein cereblon/Leucine-rich repeat serine/threonine-protein kinase 2 (Mus musculus); test: Protac activity at CRBN/LRRK2 in MEF cells assessed as induction of LRRK2 degradation at 1 uM incubated for 48 hrs in presence of cereblon degrader ZXH-03-153 by Western blot analysis; format: cell-based
[15] = molecular target: Protein cereblon/Zinc finger protein Aiolos (Homo sapiens) (UniProt Q96SW2+Q9UKT9); test: Protac activity at CRBN/IKZF3 in human MOLT-4 cells assessed as induction of IKZF3 degradation at 1 uM by proteomic analysis; format: cell-based
[16] = molecular target: T1, Protein cereblon/Cyclin-G-associated kinase (Mus musculus); test: Protac activity at CRBN/GAK in LRRK2 knockout MEF cells assessed as induction of GAK degradation at 1 uM measured after 48 hrs by Western blot analysis; format: cell-based
[17] = molecular target: Protein cereblon/E3 ubiquitin-protein ligase ZFP91 (Homo sapiens) (UniProt Q96SW2+Q96JP5); test: Protac activity at CRBN/ZFP91 in human MOLT-4 cells assessed as induction of ZFP91 degradation at 1 uM by proteomic analysis; format: cell-based
[18] = molecular target: Leucine-rich repeat serine/threonine-protein kinase 2 (Mus musculus) (UniProt Q5S006); test: Inhibition of LRRK2 in MEF cells assessed as reduction in Rab10 phosphorylation at 10 to 1000 nM measured after 24 to 48 hrs by Western blot analysis; format: cell-based; conditions: dose 10-1000 nM, time 24-48 hrs
[19] = test system: Leucine-rich repeat serine/threonine-protein kinase 2 (Homo sapiens), Q5S007 [G2019S]; test: Inhibition of human partial length LRRK2 G2019S mutant (H970 to E2527 residues) expressed in mammalian expression system at 1 uM by Kinomescan assay relative to control
[20] = test system: Protein cereblon/Leucine-rich repeat serine/threonine-protein kinase 2 (Mus musculus), Q5S006+Q8C7D2 [R1441C]; test: Protac activity at CRBN/LRRK2 R1441C mutant in MEF cells assessed as induction of LRRK2 degradation at 1 uM incubated for 48 hrs in presence of MLi-2 by Western blot analysis; format: cell-based
[21] = molecular target: Cereblon/Ikaros (Homo sapiens) (UniProt Q96SW2+Q13422); test: Protac activity at CRBN/IKZF1 in human MOLT-4 cells assessed as induction of IKZF1 degradation at 1 uM by proteomic analysis; format: cell-based
[22] = molecular target: Protein cereblon/Leucine-rich repeat serine/threonine-protein kinase 2 (Homo sapiens) (UniProt Q5S007+Q96SW2); test: Protac activity at CRBN/LRRK2 in human MOLT-4 cells assessed as induction of LRRK2 degradation at 1 uM by proteomic analysis; format: cell-based
[23] = molecular target: Leucine-rich repeat serine/threonine-protein kinase 2 (Mus musculus) (UniProt Q5S006); test: Inhibition of LRRK2 in MEF cells assessed as reduction in pS935 phosphorylation at 10 to 1000 nM measured after 24 to 48 hrs by Western blot analysis; format: cell-based; conditions: dose 10-1000 nM, time 24-48 hrs
[24] = molecular target: T2, Leucine-rich repeat serine/threonine-protein kinase 2; test: Inhibition of human wild-type partial length LRRK2 (H970 to E2527 residues) expressed in mammalian expression system at 1 uM by Kinomescan assay relative to control
[25] = test system: von Hippel-Lindau disease tumor suppressor/Leucine-rich repeat serine/threonine-protein kinase 2 (Mus musculus), Q5S006+P40338 [R1441C]; test: Protac activity at VHL/LRRK2 R1441C mutant in MEF cells assessed as induction of LRRK2 degradation incubated for 48 hrs by Western blot analysis; format: cell-based
[26] = molecular target: von Hippel-Lindau disease tumor suppressor/Leucine-rich repeat serine/threonine-protein kinase 2 (Mus musculus) (UniProt Q5S006+P40338); test: Protac activity at VHL/LRRK2 in MEF cells assessed as induction of LRRK2 degradation measured after 48 hrs by Western blot analysis; format: cell-based
[27] = molecular target: Leucine-rich repeat serine/threonine-protein kinase 2 (Mus musculus) (UniProt Q5S006); test: Inhibition of LRRK2 in MEF cells assessed as reduction in pS935 phosphorylation measured after 24 to 48 hrs by Western blot analysis; format: cell-based; conditions: time 24-48 hrs

T1 sequence (Q8C7D2 whole entry, looked up): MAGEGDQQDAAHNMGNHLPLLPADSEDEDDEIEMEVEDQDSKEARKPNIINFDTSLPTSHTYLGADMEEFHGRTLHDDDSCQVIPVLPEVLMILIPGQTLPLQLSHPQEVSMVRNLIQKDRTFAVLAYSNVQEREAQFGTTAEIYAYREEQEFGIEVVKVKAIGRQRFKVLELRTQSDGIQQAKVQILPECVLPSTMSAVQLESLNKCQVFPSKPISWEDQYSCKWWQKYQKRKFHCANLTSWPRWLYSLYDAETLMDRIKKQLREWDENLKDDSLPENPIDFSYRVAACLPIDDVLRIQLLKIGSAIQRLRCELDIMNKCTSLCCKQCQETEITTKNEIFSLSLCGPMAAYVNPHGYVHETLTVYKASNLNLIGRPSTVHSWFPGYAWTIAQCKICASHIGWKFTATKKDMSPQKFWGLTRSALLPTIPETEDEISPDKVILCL
T1 sequence (Q99KY4 whole entry, looked up): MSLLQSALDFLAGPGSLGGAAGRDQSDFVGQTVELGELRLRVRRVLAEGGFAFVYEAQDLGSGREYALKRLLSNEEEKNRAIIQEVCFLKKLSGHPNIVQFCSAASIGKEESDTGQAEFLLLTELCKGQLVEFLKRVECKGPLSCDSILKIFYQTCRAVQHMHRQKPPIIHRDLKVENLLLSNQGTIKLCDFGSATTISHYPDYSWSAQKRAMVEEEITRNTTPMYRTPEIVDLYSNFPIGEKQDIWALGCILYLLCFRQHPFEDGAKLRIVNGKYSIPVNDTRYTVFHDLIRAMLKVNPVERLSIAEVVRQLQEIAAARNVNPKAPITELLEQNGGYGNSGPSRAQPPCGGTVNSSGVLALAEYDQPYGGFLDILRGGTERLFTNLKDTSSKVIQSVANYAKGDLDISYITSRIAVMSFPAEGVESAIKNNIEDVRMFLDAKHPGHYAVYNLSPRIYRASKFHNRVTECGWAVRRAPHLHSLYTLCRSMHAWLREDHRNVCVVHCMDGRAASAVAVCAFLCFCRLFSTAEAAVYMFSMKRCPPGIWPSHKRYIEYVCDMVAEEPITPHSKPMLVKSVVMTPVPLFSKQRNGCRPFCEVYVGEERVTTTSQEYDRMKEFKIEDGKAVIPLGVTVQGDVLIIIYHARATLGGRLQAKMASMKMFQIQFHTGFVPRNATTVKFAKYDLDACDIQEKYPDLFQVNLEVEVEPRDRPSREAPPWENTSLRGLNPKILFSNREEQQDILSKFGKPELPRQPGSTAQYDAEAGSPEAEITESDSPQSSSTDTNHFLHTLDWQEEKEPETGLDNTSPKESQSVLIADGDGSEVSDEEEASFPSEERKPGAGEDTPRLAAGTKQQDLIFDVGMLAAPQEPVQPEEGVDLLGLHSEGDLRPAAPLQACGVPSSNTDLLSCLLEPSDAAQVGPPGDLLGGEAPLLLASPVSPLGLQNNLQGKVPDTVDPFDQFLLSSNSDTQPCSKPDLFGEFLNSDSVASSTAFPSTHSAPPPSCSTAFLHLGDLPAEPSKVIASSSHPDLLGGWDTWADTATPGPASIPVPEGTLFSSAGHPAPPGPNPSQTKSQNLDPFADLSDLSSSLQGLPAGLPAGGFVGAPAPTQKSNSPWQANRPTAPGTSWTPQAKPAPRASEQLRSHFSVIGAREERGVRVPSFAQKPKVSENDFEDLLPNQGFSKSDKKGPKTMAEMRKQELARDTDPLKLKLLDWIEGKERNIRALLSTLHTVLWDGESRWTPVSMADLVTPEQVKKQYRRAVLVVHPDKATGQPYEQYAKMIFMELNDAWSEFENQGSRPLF
Sequence of Leucine-rich repeat serine/threonine-protein kinase 2 (Mus musculus) (Q5S006 whole entry, the tested form may be a part): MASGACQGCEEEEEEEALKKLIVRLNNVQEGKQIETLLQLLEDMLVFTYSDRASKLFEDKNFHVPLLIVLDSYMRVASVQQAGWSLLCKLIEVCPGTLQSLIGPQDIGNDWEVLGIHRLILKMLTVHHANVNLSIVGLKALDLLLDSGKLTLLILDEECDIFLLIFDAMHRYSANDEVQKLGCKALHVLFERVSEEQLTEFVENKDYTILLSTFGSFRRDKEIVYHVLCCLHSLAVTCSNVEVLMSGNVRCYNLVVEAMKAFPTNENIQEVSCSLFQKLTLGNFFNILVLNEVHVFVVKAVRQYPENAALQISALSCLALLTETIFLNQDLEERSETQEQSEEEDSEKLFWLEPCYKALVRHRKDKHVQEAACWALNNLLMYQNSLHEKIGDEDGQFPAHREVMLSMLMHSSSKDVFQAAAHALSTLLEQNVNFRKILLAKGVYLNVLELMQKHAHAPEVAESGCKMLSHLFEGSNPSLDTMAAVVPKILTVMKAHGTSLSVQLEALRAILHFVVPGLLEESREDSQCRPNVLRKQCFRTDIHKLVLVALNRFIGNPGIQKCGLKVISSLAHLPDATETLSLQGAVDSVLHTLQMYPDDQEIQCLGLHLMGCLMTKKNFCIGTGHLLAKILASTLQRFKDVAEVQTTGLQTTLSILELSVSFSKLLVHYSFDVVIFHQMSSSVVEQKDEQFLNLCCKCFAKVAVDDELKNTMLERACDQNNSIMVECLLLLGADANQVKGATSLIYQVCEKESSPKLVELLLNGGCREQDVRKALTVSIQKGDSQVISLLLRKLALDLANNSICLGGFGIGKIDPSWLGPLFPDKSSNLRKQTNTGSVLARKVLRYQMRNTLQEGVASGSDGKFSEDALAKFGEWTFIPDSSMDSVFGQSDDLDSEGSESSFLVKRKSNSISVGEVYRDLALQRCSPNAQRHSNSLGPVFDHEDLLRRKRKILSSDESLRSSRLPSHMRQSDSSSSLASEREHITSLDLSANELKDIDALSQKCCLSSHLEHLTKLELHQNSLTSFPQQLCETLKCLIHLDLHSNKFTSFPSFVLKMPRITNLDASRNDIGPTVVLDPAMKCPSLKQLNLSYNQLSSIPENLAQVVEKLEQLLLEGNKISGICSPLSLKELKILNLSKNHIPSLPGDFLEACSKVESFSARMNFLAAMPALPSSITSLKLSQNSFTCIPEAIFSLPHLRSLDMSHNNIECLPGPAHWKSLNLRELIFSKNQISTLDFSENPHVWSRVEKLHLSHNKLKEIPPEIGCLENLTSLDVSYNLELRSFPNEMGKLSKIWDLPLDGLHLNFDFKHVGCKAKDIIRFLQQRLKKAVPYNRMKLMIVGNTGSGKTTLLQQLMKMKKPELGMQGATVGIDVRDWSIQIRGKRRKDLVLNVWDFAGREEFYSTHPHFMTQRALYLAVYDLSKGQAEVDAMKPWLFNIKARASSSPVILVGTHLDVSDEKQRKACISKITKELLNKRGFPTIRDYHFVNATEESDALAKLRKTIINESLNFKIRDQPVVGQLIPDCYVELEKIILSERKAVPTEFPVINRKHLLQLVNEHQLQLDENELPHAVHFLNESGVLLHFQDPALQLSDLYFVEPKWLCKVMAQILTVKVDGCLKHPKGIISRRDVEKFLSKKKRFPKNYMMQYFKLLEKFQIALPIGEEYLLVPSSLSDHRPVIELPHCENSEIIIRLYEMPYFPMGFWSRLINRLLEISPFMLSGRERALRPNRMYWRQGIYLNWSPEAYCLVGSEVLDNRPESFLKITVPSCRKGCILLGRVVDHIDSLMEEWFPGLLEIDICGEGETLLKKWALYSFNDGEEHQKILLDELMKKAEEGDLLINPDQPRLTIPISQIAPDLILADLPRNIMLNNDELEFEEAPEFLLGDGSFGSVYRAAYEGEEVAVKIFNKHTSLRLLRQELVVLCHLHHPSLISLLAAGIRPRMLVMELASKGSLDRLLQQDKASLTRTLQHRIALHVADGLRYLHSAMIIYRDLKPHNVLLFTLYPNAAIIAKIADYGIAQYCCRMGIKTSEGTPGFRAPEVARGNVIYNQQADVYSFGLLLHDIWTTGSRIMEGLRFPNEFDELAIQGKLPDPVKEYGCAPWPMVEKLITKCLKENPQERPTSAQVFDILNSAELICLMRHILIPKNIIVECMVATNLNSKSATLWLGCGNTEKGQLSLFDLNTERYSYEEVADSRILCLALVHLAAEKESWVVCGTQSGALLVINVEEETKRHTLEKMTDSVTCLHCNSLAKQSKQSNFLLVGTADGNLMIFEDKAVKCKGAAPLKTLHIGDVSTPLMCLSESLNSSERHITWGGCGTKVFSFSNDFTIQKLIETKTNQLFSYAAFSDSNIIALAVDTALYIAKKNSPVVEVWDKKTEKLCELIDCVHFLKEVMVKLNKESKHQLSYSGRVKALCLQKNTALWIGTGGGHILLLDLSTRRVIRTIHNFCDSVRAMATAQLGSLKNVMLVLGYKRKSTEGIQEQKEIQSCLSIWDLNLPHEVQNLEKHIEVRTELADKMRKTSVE
T3 sequence (Q5S006 whole entry, looked up): as the sequence (Q5S006 whole entry, the tested form may be a part) above
T3 sequence (Q8C7D2 whole entry, looked up): as the sequence (Q8C7D2 whole entry, looked up) above
Sequence of von Hippel-Lindau disease tumor suppressor/Leucine-rich repeat serine/threonine-protein kinase 2 (Mus musculus) (P40338 whole entry, looked up): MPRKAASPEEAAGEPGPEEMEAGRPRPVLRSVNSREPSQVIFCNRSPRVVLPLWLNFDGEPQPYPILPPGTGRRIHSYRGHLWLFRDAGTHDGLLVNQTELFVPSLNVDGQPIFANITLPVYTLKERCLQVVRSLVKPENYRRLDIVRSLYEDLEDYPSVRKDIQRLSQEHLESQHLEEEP
Sequence of von Hippel-Lindau disease tumor suppressor/Leucine-rich repeat serine/threonine-protein kinase 2 (Mus musculus) (Q5S006 whole entry, looked up): as the sequence (Q5S006 whole entry, the tested form may be a part) above

SMILES: O=C1CCC(N2C(=O)c3cccc(NCCCCCNc4cccc5c4C(=O)N(C4CCC(=O)NC4=O)C5=O)c3C2=O)C(=O)N1 (stereo not drawn)
Activity [6]: Active

SMILES: Cc1ncsc1-c1ccc([C@H](C)NC(=O)[C@@H]2C[C@@H](O)CN2C(=O)[C@@H](NC(=O)CCOCCOCCOCCOCCC(=O)N2CCN(c3cc(-c4n[nH]c5ccc(OC6(C)CC6)cc45)ncn3)CC2)C(C)(C)C)cc1
IC50 [3]: 3 nM | IC50 [4]: 4 nM

SMILES: Nc1cccc2c1CN(C1CCC(=O)NC1=O)C2=O (stereo not drawn)
Activity [5]: Active

SMILES: CC1(Oc2ccc3[nH]nc(-c4cc(N5CCN(C(=O)CCOCCOCCOCCOCCNc6cccc7c6C(=O)N(C6CCC(=O)NC6=O)C7=O)CC5)ncn4)c3c2)CC1 (stereo not drawn)
Activity [8]: Active | IC50 [3]: 1 nM | Activity [9]: inactive | IC50 [4]: 1 nM | Activity [10]: Active | Activity [11]: inactive | Activity [12]: Active | Activity [13]: Active | Activity [14]: inactive | Activity [15]: Active | Activity [7]: Active | Activity [16]: Active | Activity [17]: Active | inhibition [18]: Active | inhibition [19]: > 85% | Activity [20]: inactive | Activity [21]: Active | Activity [22]: Active | inhibition [23]: Active | inhibition [24]: > 85%

SMILES: CC1(Oc2ccc3[nH]nc(-c4cc(N5CCN(C(=O)CCOCCOCCNc6cccc7c6C(=O)N(C6CCCNC6=O)C7=O)CC5)ncn4)c3c2)CC1 (stereo not drawn)
IC50 [3]: 2 nM | Activity [25]: inactive | IC50 [4]: 2 nM | Activity [26]: inactive | inhibition [27]: Active

SMILES: Cc1ncsc1-c1ccc([C@@H](C)NC(=O)[C@H]2C[C@H](O)CN2C(=O)[C@H](NC(=O)CCOCCOCCOCCC(=O)N2CCN(c3cc(-c4n[nH]c5ccc(OC6(C)CC6)cc45)ncn3)CC2)C(C)(C)C)cc1
IC50 [3]: 6 nM | IC50 [4]: 7 nM

The remaining lines, values ahead:

Activity [1]: inactive | Activity [2]: inactive
SMILES: C[C@@H]1CN(c2cc(-c3n[nH]c4ccc(OC5(C)CC5)cc34)ncn2)C[C@H](C)O1

IC50 [3]: 3 nM | IC50 [4]: 3 nM | Activity [5]: Active
SMILES: CC1(Oc2ccc3[nH]nc(-c4cc(N5CCN(C(=O)CCOCCOCCOCCOCCNc6cccc7c6C(=O)N(C6CCC(=O)NC6=O)C7)CC5)ncn4)c3c2)CC1 (stereo not drawn)

IC50 [3]: 3 nM | IC50 [4]: 2 nM | Activity [5]: Active
SMILES: CC1(Oc2ccc3[nH]nc(-c4cc(N5CCN(C(=O)CCOCCOCCNc6cccc7c6C(=O)N(C6CCC(=O)NC6=O)C7)CC5)ncn4)c3c2)CC1 (stereo not drawn)

IC50 [3]: 3 nM | IC50 [4]: 2 nM | Activity [5]: Active
SMILES: CC1(Oc2ccc3[nH]nc(-c4cc(N5CCN(C(=O)CCOCCNc6cccc7c6C(=O)N(C6CCC(=O)NC6=O)C7)CC5)ncn4)c3c2)CC1 (stereo not drawn)

IC50 [3]: 1 nM | IC50 [4]: 1 nM | Activity [7]: Active
SMILES: CC1(Oc2ccc3[nH]nc(-c4cc(N5CCN(C(=O)CCOCCOCCNc6cccc7c6C(=O)N(C6CCC(=O)NC6=O)C7=O)CC5)ncn4)c3c2)CC1 (stereo not drawn)

IC50 [3]: 2 nM | IC50 [4]: 1 nM | Activity [5]: Active
SMILES: CC1(Oc2ccc3[nH]nc(-c4cc(N5CCN(C(=O)CCOCCNc6cccc7c6C(=O)N(C6CCC(=O)NC6=O)C7=O)CC5)ncn4)c3c2)CC1 (stereo not drawn)
